{"source": "PubChem BioAssay (NCI)", "experiment_in_all_cases": "DTP human tumour cell line panel, 48 h", "key": {"CCRF-CEM leukemia": {"system": "CCRF-CEM leukemia"}, "HCT-116 colon": {"system": "HCT-116 colon"}, "HOP-62 NSCLC": {"system": "HOP-62 NSCLC"}, "HT29 colon": {"system": "HT29 colon"}, "MALME-3M melanoma": {"system": "MALME-3M melanoma"}, "NCI-H522 lung": {"system": "NCI-H522 lung"}, "OVCAR-8 ovarian": {"system": "OVCAR-8 ovarian"}, "SK-MEL-2 melanoma": {"system": "SK-MEL-2 melanoma"}, "SK-MEL-28 melanoma": {"system": "SK-MEL-28 melanoma"}, "SK-MEL-5 melanoma": {"system": "SK-MEL-5 melanoma"}, "SK-OV-3 ovarian": {"system": "SK-OV-3 ovarian"}, "SNB-75 CNS": {"system": "SNB-75 CNS"}, "HCT-15 colon": {"system": "HCT-15 colon"}}, "note": "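Growth conditions: 96-well plates. Treatment: test compound, 48 hours, 5 concentrations. Analysis: linear interpolation between bracketing concentrations; unreached endpoints set to highest concentration. Abbreviation: GI50, concentration required for 50% inhibition of growth. Definition used: TGI = concentration required for complete inhibition of growth.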", "data": [{"smiles": "O=C(NN1C(=O)C(Cl)C1c1ccc([N+](=O)[O-])cc1)c1ccccc1O", "note": "(configuration not stated)", "values": [{"measurement": "TGI", "setting": "CCRF-CEM leukemia", "result": "> 100", "unit": "µM"}, {"measurement": "TGI", "setting": "HCT-116 colon", "result": "> 100", "unit": "µM"}, {"measurement": "TGI", "setting": "HOP-62 NSCLC", "result": "> 100", "unit": "µM"}, {"measurement": "TGI", "setting": "HT29 colon", "result": "> 100", "unit": "µM"}, {"measurement": "TGI", "setting": "MALME-3M melanoma", "result": "> 100", "unit": "µM"}, {"measurement": "TGI", "setting": "NCI-H522 lung", "result": "> 100", "unit": "µM"}, {"measurement": "TGI", "setting": "OVCAR-8 ovarian", "result": "> 100", "unit": "µM"}, {"measurement": "TGI", "setting": "SK-MEL-2 melanoma", "result": "> 100", "unit": "µM"}, {"measurement": "TGI", "setting": "SK-MEL-28 melanoma", "result": "> 100", "unit": "µM"}, {"measurement": "TGI", "setting": "SK-MEL-5 melanoma", "result": "> 100", "unit": "µM"}, {"measurement": "TGI", "setting": "SK-OV-3 ovarian", "result": "> 100", "unit": "µM"}, {"measurement": "TGI", "setting": "SNB-75 CNS", "result": "> 100", "unit": "µM"}]}, {"smiles": "Cn1nc2ccc3nccc(NCCNCCCl)c3c2n1", "values": [{"measurement": "TGI", "setting": "CCRF-CEM leukemia", "result": "> 100", "unit": "µM"}, {"measurement": "TGI", "setting": "HCT-116 colon", "result": "> 100", "unit": "µM"}, {"measurement": "TGI", "setting": "HCT-15 colon", "result": "> 100", "unit": "µM"}, {"measurement": "TGI", "setting": "HOP-62 NSCLC", "result": "> 100", "unit": "µM"}, {"measurement": "TGI", "setting": "HT29 colon", "result": "> 100", "unit": "µM"}, {"measurement": "TGI", "setting": "MALME-3M melanoma", "result": "> 100", "unit": "µM"}, {"measurement": "TGI", "setting": "NCI-H522 lung", "result": "> 100", "unit": "µM"}, {"measurement": "TGI", "setting": "OVCAR-8 ovarian", "result": "> 100", "unit": "µM"}, {"measurement": "TGI", "setting": "SK-MEL-2 melanoma", "result": "> 100", "unit": "µM"}, {"measurement": "TGI", "setting": "SK-MEL-28 melanoma", "result": "> 100", "unit": "µM"}, {"measurement": "TGI", "setting": "SK-OV-3 ovarian", "result": "> 100", "unit": "µM"}, {"measurement": "TGI", "setting": "SNB-75 CNS", "result": "> 100", "unit": "µM"}]}, {"smiles": "CCOC(=O)C1CCn2c(nc3c(=O)n(C)c(=O)n(C)c32)S1", "note": "(configuration not stated)", "values": [{"measurement": "TGI", "setting": "CCRF-CEM leukemia", "result": "> 100", "unit": "µM"}, {"measurement": "TGI", "setting": "HCT-116 colon", "result": "> 100", "unit": "µM"}, {"measurement": "TGI", "setting": "HCT-15 colon", "result": "> 100", "unit": "µM"}, {"measurement": "TGI", "setting": "HOP-62 NSCLC", "result": "> 100", "unit": "µM"}, {"measurement": "TGI", "setting": "HT29 colon", "result": "> 100", "unit": "µM"}, {"measurement": "TGI", "setting": "MALME-3M melanoma", "result": "> 100", "unit": "µM"}, {"measurement": "TGI", "setting": "NCI-H522 lung", "result": "> 100", "unit": "µM"}, {"measurement": "TGI", "setting": "OVCAR-8 ovarian", "result": "> 100", "unit": "µM"}, {"measurement": "TGI", "setting": "SK-MEL-2 melanoma", "result": "> 100", "unit": "µM"}, {"measurement": "TGI", "setting": "SK-MEL-5 melanoma", "result": "> 100", "unit": "µM"}, {"measurement": "TGI", "setting": "SK-OV-3 ovarian", "result": "> 100", "unit": "µM"}, {"measurement": "TGI", "setting": "SNB-75 CNS", "result": "> 100", "unit": "µM"}]}, {"smiles": "CC(=O)O[C@H]1CC[C@H]2[C@@H]3CC[C@H]4Nc5c(cnn5S(C)(=O)=O)C[C@]4(C)[C@H]3CC[C@]12C", "values": [{"measurement": "TGI", "setting": "CCRF-CEM leukemia", "result": "> 100", "unit": "µM"}, {"measurement": "TGI", "setting": "HCT-116 colon", "result": "> 100", "unit": "µM"}, {"measurement": "TGI", "setting": "HCT-15 colon", "result": "> 100", "unit": "µM"}, {"measurement": "TGI", "setting": "HOP-62 NSCLC", "result": 77.4, "unit": "µM"}, {"measurement": "TGI", "setting": "HT29 colon", "result": "> 100", "unit": "µM"}, {"measurement": "TGI", "setting": "MALME-3M melanoma", "result": "> 100", "unit": "µM"}, {"measurement": "TGI", "setting": "NCI-H522 lung", "result": "> 100", "unit": "µM"}, {"measurement": "TGI", "setting": "OVCAR-8 ovarian", "result": "> 100", "unit": "µM"}, {"measurement": "TGI", "setting": "SK-MEL-2 melanoma", "result": "> 100", "unit": "µM"}, {"measurement": "TGI", "setting": "SK-MEL-28 melanoma", "result": "> 100", "unit": "µM"}, {"measurement": "TGI", "setting": "SK-MEL-5 melanoma", "result": "> 100", "unit": "µM"}, {"measurement": "TGI", "setting": "SK-OV-3 ovarian", "result": "> 100", "unit": "µM"}, {"measurement": "TGI", "setting": "SNB-75 CNS", "result": "> 100", "unit": "µM"}]}, {"smiles": "COc1cc(C2c3cc4c(cc3[C@@H](Nc3ccc(N5CCOCC5)cc3)C3COC(=O)[C@H]23)OCO4)cc(OC)c1O", "note": "(some centres not stated)", "values": [{"measurement": "TGI", "setting": "CCRF-CEM leukemia", "result": 0.773, "unit": "µM"}, {"measurement": "TGI", "setting": "HCT-116 colon", "result": 13.7, "unit": "µM"}, {"measurement": "TGI", "setting": "HCT-15 colon", "result": 2.59, "unit": "µM"}, {"measurement": "TGI", "setting": "HOP-62 NSCLC", "result": 0.829, "unit": "µM"}, {"measurement": "TGI", "setting": "HT29 colon", "result": 4.58, "unit": "µM"}, {"measurement": "TGI", "setting": "MALME-3M melanoma", "result": 15, "unit": "µM"}, {"measurement": "TGI", "setting": "NCI-H522 lung", "result": 3.4, "unit": "µM"}, {"measurement": "TGI", "setting": "OVCAR-8 ovarian", "result": 3.95, "unit": "µM"}, {"measurement": "TGI", "setting": "SK-MEL-2 melanoma", "result": 5.4, "unit": "µM"}, {"measurement": "TGI", "setting": "SK-MEL-28 melanoma", "result": 26.8, "unit": "µM"}, {"measurement": "TGI", "setting": "SK-MEL-5 melanoma", "result": 2.45, "unit": "µM"}, {"measurement": "TGI", "setting": "SK-OV-3 ovarian", "result": 5.38, "unit": "µM"}, {"measurement": "TGI", "setting": "SNB-75 CNS", "result": 78.2, "unit": "µM"}]}, {"smiles": "O=C(/C=C/c1ccsc1)c1ccc(Cl)s1", "values": [{"measurement": "TGI", "setting": "CCRF-CEM leukemia", "result": 63.9, "unit": "µM"}, {"measurement": "TGI", "setting": "HCT-116 colon", "result": 60.5, "unit": "µM"}, {"measurement": "TGI", "setting": "HCT-15 colon", "result": "> 100", "unit": "µM"}, {"measurement": "TGI", "setting": "HOP-62 NSCLC", "result": "> 100", "unit": "µM"}, {"measurement": "TGI", "setting": "HT29 colon", "result": "> 100", "unit": "µM"}, {"measurement": "TGI", "setting": "MALME-3M melanoma", "result": "> 100", "unit": "µM"}, {"measurement": "TGI", "setting": "OVCAR-8 ovarian", "result": "> 100", "unit": "µM"}, {"measurement": "TGI", "setting": "SK-MEL-2 melanoma", "result": "> 100", "unit": "µM"}, {"measurement": "TGI", "setting": "SK-MEL-28 melanoma", "result": "> 100", "unit": "µM"}, {"measurement": "TGI", "setting": "SK-MEL-5 melanoma", "result": "> 100", "unit": "µM"}, {"measurement": "TGI", "setting": "SK-OV-3 ovarian", "result": "> 100", "unit": "µM"}, {"measurement": "TGI", "setting": "SNB-75 CNS", "result": "> 100", "unit": "µM"}]}, {"smiles": "CN(C)S(=O)(=O)c1cccc(-c2nc3sc4c(c3c(=O)[nH]2)CCCC4)c1", "values": [{"measurement": "TGI", "setting": "CCRF-CEM leukemia", "result": "> 100", "unit": "µM"}, {"measurement": "GI50", "setting": "HCT-15 colon", "result": "> 100", "unit": "µM"}, {"measurement": "TGI", "setting": "HCT-15 colon", "result": "> 100", "unit": "µM"}, {"measurement": "GI50", "setting": "HOP-62 NSCLC", "result": 3.73, "unit": "µM"}, {"measurement": "TGI", "setting": "HOP-62 NSCLC", "result": "> 100", "unit": "µM"}, {"measurement": "GI50", "setting": "NCI-H522 lung", "result": "> 100", "unit": "µM"}, {"measurement": "TGI", "setting": "NCI-H522 lung", "result": "> 100", "unit": "µM"}, {"measurement": "GI50", "setting": "OVCAR-8 ovarian", "result": 1.52, "unit": "µM"}, {"measurement": "TGI", "setting": "OVCAR-8 ovarian", "result": "> 100", "unit": "µM"}, {"measurement": "GI50", "setting": "SK-MEL-28 melanoma", "result": "> 100", "unit": "µM"}, {"measurement": "TGI", "setting": "SK-MEL-28 melanoma", "result": "> 100", "unit": "µM"}, {"measurement": "GI50", "setting": "SK-MEL-5 melanoma", "result": "> 100", "unit": "µM"}, {"measurement": "TGI", "setting": "SK-MEL-5 melanoma", "result": "> 100", "unit": "µM"}]}]}
